Legend:
Assay in all cases: Protein kinase inhibition assay
Assay type in all cases: biochemical
CK1δ(h) = CK1δ(h) (Homo sapiens, UniProt P48730); settings: read-out: percent residual activity of CK1δ(h)
Protocol: (§1) Certain compounds were tested for activity in protein kinase inhibition assays. All substrates were dissolved and diluted to working stocks in de-ionized water, apart from histone H1 (10× working stock in 20 mM MOPS pH 7.0), PDKtide (10× working stock in 50 mM Tris pH 7.0) ATF2 (which is typically stored at a 20× working stock in 50 mM Tris pH 7.5, 150 mM NaCl, 0.1 mM EGTA, 0.03% Brij-35, 50% glycerol, 1 mM benzamidine, 0.2 mM PMSF and 0.1% R-mercaptoethanol), KKLNRTLSFAEPG (SEQ ID NO:203) and RRRLSFAEPG (SEQ ID NO:204) (50 mM HEPES pH 7.4) and GGEEEEYFELVKKKK (SEQ ID NO:205) (20 mM MOPS pH 7.0). All kinases were pre-diluted to a 10× working concentration prior to addition into the assay. The composition of the dilution buffer for each kinase is detailed below.
(§2) In a final reaction volume of 25 μl, CK1δ (h) (5-10 mU) is incubated with 8 mM MOPS pH 7.0, 0.2 mM EDTA, 200 μM KRRRALS(p)VASLPGL (SEQ ID NO:214), 10 mM MgAcetate and [gamma-33P-ATP] (specific activity approx. 500 cpm/pmol, concentration as required). The reaction is initiated by the addition of the MgATP mix. After incubation for 40 minutes at room temperature, the reaction is stopped by the addition of 5 μl of a 3% phosphoric acid solution. 10 μl of the reaction is then spotted onto a P30 filtermat and washed three times for 5 minutes in 75 mM phosphoric acid and once in methanol prior to drying and scintillation counting.

Aurora-A(h) = Aurora-A(h) (Homo sapiens, UniProt O14965); settings: read-out: percent residual activity of Aurora-A(h)
Protocol: as §1
(§3) In a final reaction volume of 25 μl, Aurora-A (h) (5-10 mU) is incubated with 8 mM MOPS pH 7.0, 0.2 mM EDTA, 200 μM LRRASLG (SEQ ID NO:209) (Kemptide), 10 mM MgAcetate and [gamma-33P-ATP] (specific activity approx. 500 cpm/pmol, concentration as required). The reaction is initiated by the addition of the MgATP mix. After incubation for 40 minutes at room temperature, the reaction is stopped by the addition of 5 μl of a 3% phosphoric acid solution. […]

EphA3(h) = EphA3(h) (Homo sapiens, UniProt P29320); settings: read-out: percent residual activity of EphA3(h)
Protocol: as §1
as §2, with “EphA3” for “CK1δ”, “0.1 mg/ml poly(Glu, Tyr) 4:1,” for “200 μM KRRRALS(p)VASLPGL (SEQ ID NO:214),”, “Filtermat A” for “P30 filtermat”

ErbB4(h) = ErbB4(h) (Homo sapiens, UniProt Q15303); settings: read-out: percent residual activity of ErbB4(h)
Protocol: as §1
as §2, with “μl, ErbB4” for “μl, CK1δ”, “EDTA, 2.5 mM MnCl2, 0.1 mg/ml poly(Glu, Tyr) 4:1,” for “EDTA, 200 μM KRRRALS(p)VASLPGL (SEQ ID NO:214),”, “10 ll” for “10 μl”, “a Filtermat A” for “a P30 filtermat”

PKCμ(h) = PKCμ(h) (Homo sapiens, UniProt Q15139); settings: read-out: percent residual activity of PKCμ(h)
Protocol: as §1
as §2, with “PKCμ” for “CK1δ”, “20” for “8”, “REPES” for “MOPS”, “7.4, 0.03% Triton X-100, 30” for “7.0, 0.2 mM EDTA, 200”, “KKLNRTLSVA” for “KRRRALS(p)VASLPGL”, “NO:212),” for “NO:214),”

Blk(m) = Blk(m) (Mus musculus, UniProt P16277); settings: read-out: percent residual activity of Blk(m)
Protocol: as §1
as §3, with “Blk (m)” for “Aurora-A (h)”, “50” for “8”, “Tris” for “MOPS”, “7.5, 0.1” for “7.0, 0.2”, “EGTA, 0.1 mM Na3VO4, 0.1% R-mercaptoethanol, 0.1 mg/ml poly(Glu, Tyr) 4:1,” for “EDTA, 200 μM LRRASLG (SEQ ID NO:209) (Kemptide),”

CK1δ(h), sequence (P48730 whole entry): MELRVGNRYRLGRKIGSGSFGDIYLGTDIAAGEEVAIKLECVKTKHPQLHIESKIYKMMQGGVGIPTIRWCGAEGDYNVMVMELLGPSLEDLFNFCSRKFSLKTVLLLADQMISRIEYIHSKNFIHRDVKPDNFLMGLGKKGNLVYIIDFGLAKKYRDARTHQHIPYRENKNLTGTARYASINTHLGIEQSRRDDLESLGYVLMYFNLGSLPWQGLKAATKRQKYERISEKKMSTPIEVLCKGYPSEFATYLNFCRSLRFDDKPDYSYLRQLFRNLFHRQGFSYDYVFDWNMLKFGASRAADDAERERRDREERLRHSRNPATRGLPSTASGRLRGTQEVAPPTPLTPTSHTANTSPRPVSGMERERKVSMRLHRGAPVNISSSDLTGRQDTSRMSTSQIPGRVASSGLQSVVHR
EphA3(h), sequence (P29320 21-983): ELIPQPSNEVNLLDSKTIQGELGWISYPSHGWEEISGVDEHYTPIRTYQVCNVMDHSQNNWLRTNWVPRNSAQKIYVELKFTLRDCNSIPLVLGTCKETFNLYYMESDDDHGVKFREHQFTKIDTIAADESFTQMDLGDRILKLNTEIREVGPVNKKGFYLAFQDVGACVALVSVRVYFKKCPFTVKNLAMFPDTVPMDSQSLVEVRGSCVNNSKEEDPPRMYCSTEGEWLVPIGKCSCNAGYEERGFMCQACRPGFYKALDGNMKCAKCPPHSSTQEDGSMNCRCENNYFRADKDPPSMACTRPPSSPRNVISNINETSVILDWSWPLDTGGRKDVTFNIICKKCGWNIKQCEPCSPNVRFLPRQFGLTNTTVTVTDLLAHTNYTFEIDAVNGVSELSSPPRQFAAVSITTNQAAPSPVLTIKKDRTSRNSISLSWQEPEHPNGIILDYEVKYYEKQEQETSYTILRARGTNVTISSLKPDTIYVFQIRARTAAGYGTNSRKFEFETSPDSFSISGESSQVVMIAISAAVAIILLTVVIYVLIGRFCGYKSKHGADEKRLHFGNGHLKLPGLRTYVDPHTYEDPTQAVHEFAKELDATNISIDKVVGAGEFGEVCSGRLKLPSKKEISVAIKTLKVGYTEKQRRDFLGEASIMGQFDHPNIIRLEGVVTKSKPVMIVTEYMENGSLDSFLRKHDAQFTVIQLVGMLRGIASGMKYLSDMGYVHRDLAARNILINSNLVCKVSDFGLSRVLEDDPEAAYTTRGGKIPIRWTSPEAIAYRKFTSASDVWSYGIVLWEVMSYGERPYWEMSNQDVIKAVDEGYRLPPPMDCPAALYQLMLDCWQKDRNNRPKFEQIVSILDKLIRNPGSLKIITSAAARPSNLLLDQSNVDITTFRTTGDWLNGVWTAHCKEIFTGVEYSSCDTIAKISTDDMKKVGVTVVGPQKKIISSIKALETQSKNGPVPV
ErbB4(h), sequence (Q15303 26-1308): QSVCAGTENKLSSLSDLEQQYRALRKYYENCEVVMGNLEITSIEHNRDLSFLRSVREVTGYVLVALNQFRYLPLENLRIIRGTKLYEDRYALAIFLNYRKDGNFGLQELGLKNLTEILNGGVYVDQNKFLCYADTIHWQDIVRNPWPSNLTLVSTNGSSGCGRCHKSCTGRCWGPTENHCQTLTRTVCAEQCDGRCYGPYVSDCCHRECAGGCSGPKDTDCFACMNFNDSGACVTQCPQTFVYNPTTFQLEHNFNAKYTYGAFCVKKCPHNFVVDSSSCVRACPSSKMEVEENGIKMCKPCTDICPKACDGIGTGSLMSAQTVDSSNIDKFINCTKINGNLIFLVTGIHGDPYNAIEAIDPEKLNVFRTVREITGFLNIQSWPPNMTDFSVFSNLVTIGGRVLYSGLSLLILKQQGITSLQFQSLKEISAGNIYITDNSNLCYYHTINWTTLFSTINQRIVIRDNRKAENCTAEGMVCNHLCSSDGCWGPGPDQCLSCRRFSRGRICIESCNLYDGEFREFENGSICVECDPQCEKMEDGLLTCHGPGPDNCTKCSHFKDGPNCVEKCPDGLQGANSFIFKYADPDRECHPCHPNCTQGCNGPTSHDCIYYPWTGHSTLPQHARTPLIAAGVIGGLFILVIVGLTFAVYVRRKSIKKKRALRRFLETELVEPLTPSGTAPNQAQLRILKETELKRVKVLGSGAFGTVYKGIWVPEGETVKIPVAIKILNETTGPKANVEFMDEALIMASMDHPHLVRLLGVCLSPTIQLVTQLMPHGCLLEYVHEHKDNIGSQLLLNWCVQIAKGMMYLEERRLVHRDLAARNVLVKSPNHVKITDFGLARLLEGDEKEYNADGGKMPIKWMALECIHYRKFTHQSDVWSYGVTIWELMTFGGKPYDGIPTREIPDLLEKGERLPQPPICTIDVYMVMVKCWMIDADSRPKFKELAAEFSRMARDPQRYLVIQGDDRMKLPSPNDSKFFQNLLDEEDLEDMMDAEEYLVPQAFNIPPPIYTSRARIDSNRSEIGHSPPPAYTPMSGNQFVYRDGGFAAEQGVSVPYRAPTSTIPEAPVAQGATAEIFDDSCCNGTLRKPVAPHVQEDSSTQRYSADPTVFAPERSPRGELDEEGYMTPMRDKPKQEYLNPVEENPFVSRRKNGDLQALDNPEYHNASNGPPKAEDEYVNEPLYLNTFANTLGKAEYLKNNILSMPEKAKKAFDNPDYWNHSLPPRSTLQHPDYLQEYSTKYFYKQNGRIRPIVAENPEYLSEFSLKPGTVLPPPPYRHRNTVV
Blk(m), sequence (P16277 whole entry): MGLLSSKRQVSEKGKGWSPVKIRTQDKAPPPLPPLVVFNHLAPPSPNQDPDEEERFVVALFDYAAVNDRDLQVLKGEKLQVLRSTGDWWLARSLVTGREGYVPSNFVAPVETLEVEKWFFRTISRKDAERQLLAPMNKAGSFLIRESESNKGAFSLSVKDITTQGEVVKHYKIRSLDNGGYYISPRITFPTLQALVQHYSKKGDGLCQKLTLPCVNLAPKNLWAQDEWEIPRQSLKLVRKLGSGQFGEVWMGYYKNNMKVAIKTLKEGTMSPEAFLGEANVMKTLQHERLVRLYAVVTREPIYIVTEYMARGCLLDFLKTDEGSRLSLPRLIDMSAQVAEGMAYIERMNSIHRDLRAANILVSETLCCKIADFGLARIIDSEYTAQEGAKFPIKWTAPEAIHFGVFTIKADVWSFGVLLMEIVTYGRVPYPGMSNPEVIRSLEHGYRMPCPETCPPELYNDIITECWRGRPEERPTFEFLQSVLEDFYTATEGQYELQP
Aurora-A(h), sequence (O14965 whole entry): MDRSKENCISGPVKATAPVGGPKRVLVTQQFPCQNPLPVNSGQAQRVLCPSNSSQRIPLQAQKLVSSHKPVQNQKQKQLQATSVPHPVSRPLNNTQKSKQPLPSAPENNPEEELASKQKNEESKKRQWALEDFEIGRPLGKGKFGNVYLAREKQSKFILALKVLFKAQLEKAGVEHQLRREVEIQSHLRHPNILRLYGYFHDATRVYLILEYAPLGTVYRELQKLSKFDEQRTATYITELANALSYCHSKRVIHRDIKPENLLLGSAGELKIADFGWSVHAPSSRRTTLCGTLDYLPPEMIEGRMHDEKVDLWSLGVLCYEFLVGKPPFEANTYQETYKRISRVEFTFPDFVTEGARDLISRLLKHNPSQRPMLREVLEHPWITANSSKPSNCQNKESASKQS
PKCμ(h), sequence (Q15139 whole entry): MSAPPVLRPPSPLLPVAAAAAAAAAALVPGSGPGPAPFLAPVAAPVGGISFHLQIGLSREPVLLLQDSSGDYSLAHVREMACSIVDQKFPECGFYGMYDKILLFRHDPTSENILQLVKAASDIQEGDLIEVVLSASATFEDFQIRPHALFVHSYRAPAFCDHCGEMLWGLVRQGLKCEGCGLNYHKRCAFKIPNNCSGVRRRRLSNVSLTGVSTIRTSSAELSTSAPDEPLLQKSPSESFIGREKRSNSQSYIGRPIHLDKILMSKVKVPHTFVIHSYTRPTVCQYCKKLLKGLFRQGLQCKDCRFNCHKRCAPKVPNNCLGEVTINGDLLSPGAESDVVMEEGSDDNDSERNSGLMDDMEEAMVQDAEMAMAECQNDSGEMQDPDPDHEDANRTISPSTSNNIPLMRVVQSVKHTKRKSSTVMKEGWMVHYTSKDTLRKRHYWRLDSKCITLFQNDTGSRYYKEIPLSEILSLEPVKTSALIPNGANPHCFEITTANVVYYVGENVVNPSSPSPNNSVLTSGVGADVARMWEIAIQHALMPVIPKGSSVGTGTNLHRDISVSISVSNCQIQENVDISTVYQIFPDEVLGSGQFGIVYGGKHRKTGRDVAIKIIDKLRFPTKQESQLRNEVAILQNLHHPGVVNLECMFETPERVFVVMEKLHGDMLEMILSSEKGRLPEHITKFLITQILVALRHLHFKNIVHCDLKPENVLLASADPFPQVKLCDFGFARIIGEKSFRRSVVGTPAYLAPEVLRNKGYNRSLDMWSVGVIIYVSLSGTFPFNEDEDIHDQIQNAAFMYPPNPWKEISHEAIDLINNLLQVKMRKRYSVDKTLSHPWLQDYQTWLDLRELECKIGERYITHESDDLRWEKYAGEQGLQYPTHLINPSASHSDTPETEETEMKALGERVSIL

| remaining activity at 2.5 µM (CK1δ(h)) [%] | remaining activity at 2.5 µM (Aurora-A(h)) [%] | remaining activity at 2.5 µM (EphA3(h)) [%] | remaining activity at 2.5 µM (ErbB4(h)) [%] | remaining activity at 2.5 µM (PKCμ(h)) [%] | remaining activity at 2.5 µM (Blk(m)) [%] | Structure (SMILES) |
| --- | --- | --- | --- | --- | --- | --- |
| 87 | 43 | 91 | 92 | 49 | 117 | CN1CCCC1CCNC(=O)c1cn2c3c(c(N4CCC(c5cnccn5)C4)c(F)cc3c1=O)Oc1cc3ccccc3cc1-2 (stereo not drawn) [Compound A-1] |
| 92 | 104 | 118 | 107 | 94 | 106 | CC(=O)N1CCN(c2ccc3c(=O)c(C(=O)NCCN4CCCC4)c4n(C)c5ccccc5n4c3n2)CC1 [Compound B-1] |
